No end group written: not given here.
Key:
[1] = system: A. baumannii isolate AB 72; conditions: cited from earlier work
Protocol: (§1) In this work, three A. baumannii isolates previously described by Castilho et al. that were isolated from patients with hospital-acquired infections were used. Isolates AB 02 and AB 72 were resistant to ampicillin, amikacin, and ciprofloxacin. AB 53 isolate only presented resistance to ampicillin. […] Thus, AB 02 and AB 72 were considered as MDR strains. The ability to form biofilms by A. baumannii isolates AB 02, AB 53 and AB 72 was determined by crystal violet staining ...

[2] = system: A. baumannii isolate AB 02; conditions: cited from earlier work
Protocol: as §1

[3] = system: A. baumannii isolate AB 02 biofilm; experiment: Inhibition of biofilm formation on polystyrene plates (MBEC), crystal violet; assay type: cell-based, Acinetobacter baumannii; conditions: for Minimal inhibitory concentration against the formation of A. baumannii biofilm (MBEC): Isolate AB 02, polystyrene plate, LB 1/4 + 0.2% glucose, 29 °C, 24 h, crystal violet, OD 595 nm, peptides 25 to 1.56 μM
Protocol: […] [71] methodology with minor modifications. Initially, A. baumannii strains (AB 02, AB 53, and AB 72) were grown for 6 h in LB broth until reaching an optimum growth of 1.0 in the optical density of 600 nm and then the culture concentration was adjusted to 1.5 × 10^8 CFU/mL and 30 μL of the culture was added to the wells containing 170 μL de LB ¼ + 0.2% glucose containing serially diluted peptides ranging from 25 to 1.56 μM. Cells were incubated at 29 °C for 24 h to let biofilms be formed. The supernatant was removed and the wells were washed with 200 μL of PBS twice to remove the non-adherent and weakly adherent cells, maintaining only the mature biofilm formed on the plate. Biofilm quantification was measured by staining attached cells with 0.2% (w/v) violet crystal staining solubilized with ethanol/acetone (80/20 v/v) and quantified at 595 nm. The biofilms formed in cultures with different peptide concentrations were compared with the biofilms formed in cultures of A. baumannii strains without peptides. Analyses were performed in triplicate and three independent experiments were performed for each of these assays.

[4] = system: A. baumannii isolate AB 72; experiment: Minimum inhibitory concentration (MIC), broth microdilution; assay type: cell-based, Acinetobacter baumannii; conditions: peptides 25 to 1.56 μM, 24 h at 37 °C, OD 405 nm, triplicates
Protocol: (§2) The minimum inhibitory concentration was determined by broth microdilution according to Wiegand et al.. The AB 02, […] and AB 72 isolates were grown in LB broth medium for 8 h at 37 °C until they reached a growth turbidity corresponding to 0.5 of the McFarland scale. Thirty microliters of each culture were added in the wells of polystyrene plates containing 170 µL of culture medium with different concentrations of the antimicrobial peptides. Agelaia-MPI, Polybia-MPII, Polydim-I, Con10 and NDBP 5.8 antimicrobial peptides were serially diluted from 25 to 1.56 μM. The plate containing different concentrations of individual peptides with the bacterial strains were incubated for 24 h at 37 °C, after which time the plates were read at the optical density of 405 nm. As positive control, bacterial strains without peptides were grown in the same conditions, and as negative control medium alone was used.

[5] = system: A. baumannii isolate AB 02; experiment: as above; assay type: cell-based, Acinetobacter baumannii; conditions: peptides 25 to 1.56 μM, 24 h at 37 °C, OD 405 nm, triplicates
Protocol: as §2

[6] = system: A. baumannii isolate AB 53; experiment: as above; assay type: cell-based, Acinetobacter baumannii; conditions: peptides 25 to 1.56 μM, 24 h at 37 °C, OD 405 nm, triplicates
[7] = system: A. baumannii isolate AB 72 biofilm; experiment: Inhibition of biofilm formation on polystyrene plates (MBEC), crystal violet; assay type: cell-based, Acinetobacter baumannii; conditions: for Minimal inhibitory concentration against the formation of A. baumannii biofilm (MBEC): Isolate AB 72, polystyrene plate, LB 1/4 + 0.2% glucose, 29 °C, 24 h, crystal violet, OD 595 nm, peptides 25 to 1.56 μM
Protocol: (§3) In order to determine if individual peptides could avoid biofilm formation, the minimal biofilm eradication concentration (MBEC) determination assay was performed using 96-well […] plates according to Feng et al. methodology with minor modifications. Initially, A. baumannii strains (AB 02, AB 53, and AB 72) were grown for 6 h in LB broth until reaching an optimum growth of 1.0 in the optical density of 600 nm and then the culture concentration was adjusted to 1.5 × 10^8 CFU/mL and 30 μL of the culture was added to the wells containing 170 μL de LB ¼ + 0.2% glucose containing serially diluted peptides ranging from 25 to 1.56 μM. Cells were incubated at 29 °C for 24 h to let biofilms be formed. The supernatant was removed and the wells were washed with 200 μL of PBS twice to remove the non-adherent and weakly adherent cells, maintaining only the mature biofilm formed on the plate. Biofilm quantification was measured by staining attached cells with 0.2% (w/v) violet crystal staining solubilized with ethanol/acetone (80/20 v/v) and quantified at 595 nm. The biofilms formed in cultures with different peptide concentrations were compared with the biofilms formed in cultures of A. baumannii strains without peptides. Analyses were performed in triplicate and three independent experiments were performed for each of these assays.

[8] = system: A. baumannii isolate AB 53 biofilm; experiment: as above; assay type: cell-based, Acinetobacter baumannii; conditions: for Minimal inhibitory concentration against the formation of A. baumannii biofilm (MBEC): Isolate AB 53, polystyrene plate, LB 1/4 + 0.2% glucose, 29 °C, 24 h, crystal violet, OD 595 nm, peptides 25 to 1.56 μM
Protocol: as §3

[9] = system: A. baumannii isolate AB 53; conditions: cited from earlier work
Protocol: as §1

[10] = system: S. epidermidis biofilm; assay type: cell-based, Staphylococcus epidermidis; conditions: peptide at 12.5 μM, crystal violet
Protocol: (§4) To determine the formation of the biofilm of Staphylococcus spp., the methodology according to Kwasny and Opperman (2010) with modifications was used. Staphylococcus epidermidis and methicillin-resistant Staphylococcus aureus (MRSA) cryopreserved strains at −80 °C were reactivated in solid medium to obtain an isolated colony, which was inoculated in LB medium broth and cultured at 37 °C until they reached a concentration corresponding to 0.5 turbidity of the MacFarland scale. At that concentration, 30 μL of the bacterial culture was added to wells containing 170 μL of tryptic soy broth (HiMedia) broth with 1% glucose. The plate was incubated at 37 °C for 24 h. After this period the bacterial growth was quantified by optical density reading at 600 nm and the formation of the biofilm was determined by the colorimetric method similar to that used for Acinetobacter. The biofilm inhibition test also followed the standard for the previous tests, with modifications in the culture medium used to increase the bacterial biofilm production by Staphylococcus strains.

[11] = system: methicillin-resistant S. aureus (MRSA) biofilm; assay type: cell-based, Staphylococcus aureus; conditions: peptide at 12.5 μM, crystal violet
Protocol: as §4

Compound | Antibiotic susceptibility category [1] | Antibiotic susceptibility category [2] | Minimal inhibitory concentration against the formation of A. baumannii biofilm (MBEC) [3] [µM] | MIC [4] [µM] | MIC [5] [µM] | MIC [6] [µM] | Minimal inhibitory concentration against the formation of A. baumannii biofilm (MBEC) [7] [µM] | Minimal inhibitory concentration against the formation of A. baumannii biofilm (MBEC) [8] [µM] | Antibiotic susceptibility category [9] | further results
O=C(O)c1cn(C2CC2)c2cc(N3CCNCC3)c(F)cc2c1=O [ciprofloxacin] | resistant | resistant |  |  |  |  |  |  |  | 
FWSFLVKAASKILPSLIGGGDDNKSSS-NH2 [Con10] |  |  | 25 | 6.25 | 12.5 | 6.25 | 12.5 | 12.5 |  | 
NCC[C@H](O)C(=O)N[C@@H]1C[C@H](N)[C@@H](O[C@H]2O[C@H](CN)[C@@H](O)[C@H](O)[C@H]2O)[C@H](O)[C@H]1O[C@H]1O[C@H](CO)[C@@H](O)[C@H](N)[C@H]1O [amikacin] | resistant | resistant |  |  |  |  |  |  |  | 
GILGKIWEGVKSLI-NH2 [NDBP-5.8] |  |  | >25 | 25 | 25 | 25 | >25 | >25 |  | Minimal inhibitory concentration against the formation of A. baumannii biofilm (MBEC) ([3]; listed as NBDP 5.8): 25 µM; Inhibition of the biofilm ([3]; isolate AB 02, peptide at 25 μM): > 95%; Minimal inhibitory concentration against the formation of A. baumannii biofilm (MBEC) ([7]; listed as NBDP 5.8): 25 µM; Inhibition of the biofilm ([7]; isolate AB 72, peptide at 25 μM): > 95%; Minimal inhibitory concentration against the formation of A. baumannii biofilm (MBEC) ([8]; listed as NBDP 5.8): 25 µM; Inhibition of the biofilm ([8]; isolate AB 53, peptide at 25 μM): > 95%
CC1(C)S[C@@H]2[C@H](NC(=O)[C@H](N)c3ccccc3)C(=O)N2[C@H]1C(=O)O [ampicillin] | resistant | resistant |  |  |  |  |  |  | resistance | 
C[C@@H](O)[C@H]1C(=O)N2C(C(=O)O)=C(S[C@@H]3CN[C@H](C(=O)N(C)C)C3)[C@H](C)[C@H]12 [meropenem] | susceptible |  |  |  |  |  |  |  | susceptible | 
CN(C)[C@@H]1C(O)=C(C(N)=O)C(=O)[C@@]2(O)C(O)=C3C(=O)c4c(O)cccc4[C@@](C)(O)[C@H]3C[C@@H]12 [tetracycline] | intermediate susceptibility | intermediate susceptibility |  |  |  |  |  |  | intermediate susceptibility | 
INWLKLGKAIIDAL-NH2 [Agelaia-MPI] |  |  | 25 |  | 6.25 | 3.12 | 12.5 | 6.25 |  | Inhibition of biofilm formation [10]: 85%; Inhibition of biofilm formation [11]: 85%
AVAGEKLWLLPHLLKMLLTPTP-NH2 [Polydim-I] |  |  | >25 |  |  |  | >25 | >25 |  | 
INWLKLGKMVIDAL-NH2 [Polybia-MPII] |  |  | 25 | 6.25 | 12.5 | 6.25 | 25 | 12.5 |  | Inhibition of biofilm formation [10]: 85%; Inhibition of biofilm formation [11]: 85%
